# Results taken from article PMC3306470 (ACS chemical biology, 2012).
# Assays:
# ß-lactamase = experiment: ß-Lactamase assay
# PARG [1] = experiment: PARG in vitro assay; settings: for PARG inhibition: 0.5 h incubation with 32P-PAR
# [2] = target: endogenous PARG in whole cell lysate generated from mouse embryonic fibroblasts (MEFs) (Mus musculus, UniProt O88622); experiment: Processing of 32P-PAR by MEF whole cell lysate; assay type: biochemical; settings: 25 μM, MEF lysate 1.5 μg
# PARG [3] = settings: cited from earlier work
# [4] = not told; cited from earlier work
# PARG [5] = experiment: PARG in vitro assay under the original salicylanilide conditions; settings: 10 μM; phosphate buffer, 5 min; both in the absence and presence of 0.1% Triton X-100
# Chain of endogenous PARG in whole cell lysate generated from mouse embryonic fibroblasts (MEFs) (O88622 whole entry): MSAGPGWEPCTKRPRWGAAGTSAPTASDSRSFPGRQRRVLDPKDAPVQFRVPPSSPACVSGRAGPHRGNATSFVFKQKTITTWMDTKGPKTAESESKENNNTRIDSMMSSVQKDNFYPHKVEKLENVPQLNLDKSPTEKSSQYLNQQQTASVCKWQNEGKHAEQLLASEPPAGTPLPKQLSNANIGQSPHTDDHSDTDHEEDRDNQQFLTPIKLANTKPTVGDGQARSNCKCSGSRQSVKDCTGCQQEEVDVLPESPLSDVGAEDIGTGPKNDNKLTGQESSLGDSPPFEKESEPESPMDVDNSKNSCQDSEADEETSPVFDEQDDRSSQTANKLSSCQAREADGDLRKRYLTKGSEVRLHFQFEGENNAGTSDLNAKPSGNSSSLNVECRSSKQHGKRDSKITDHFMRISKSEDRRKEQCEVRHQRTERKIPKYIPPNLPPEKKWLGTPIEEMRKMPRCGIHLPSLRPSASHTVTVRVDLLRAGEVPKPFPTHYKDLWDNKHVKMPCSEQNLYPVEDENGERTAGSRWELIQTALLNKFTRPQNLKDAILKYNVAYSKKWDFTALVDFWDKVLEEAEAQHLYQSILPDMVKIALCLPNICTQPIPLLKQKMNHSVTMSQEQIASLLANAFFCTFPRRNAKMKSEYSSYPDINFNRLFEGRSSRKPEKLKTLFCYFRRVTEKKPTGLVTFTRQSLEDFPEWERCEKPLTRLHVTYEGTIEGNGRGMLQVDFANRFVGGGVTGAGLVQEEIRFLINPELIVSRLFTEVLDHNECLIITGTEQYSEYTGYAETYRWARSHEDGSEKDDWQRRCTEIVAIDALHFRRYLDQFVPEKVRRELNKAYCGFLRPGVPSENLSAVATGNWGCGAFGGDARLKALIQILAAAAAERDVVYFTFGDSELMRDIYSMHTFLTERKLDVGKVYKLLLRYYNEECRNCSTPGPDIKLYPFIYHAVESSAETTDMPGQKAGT
SMILES,"inhibition of ß-lactamase (ß-lactamase; 50 μM, absence of detergent) [%]","inhibition of ß-lactamase in the presence of detergent (ß-lactamase; 5-50 μM, 0.1% Triton X-100) [%]","effect of detergent on inhibition of PARG (PARG [1]; compound 50 μM, presence or absence of 0.1% Triton X-100, 2 h)",intact PAR at 60 min [2],partial inhibition of PARG (PARG [3]),"IC50 (PARG [3]; read-out: IC50 for PARG inhibition, literature value) [nM]",cell permeability [4],PARG inhibition (PARG [1]; 0.5 μM),PARG inhibition (PARG [1]; 25 μM) [%],"PARG inhibition after prolonged incubation (PARG [1]; 0.5 – 25 μM, 2 h incubation with 32P-PAR)",PARG inhibition (PARG [5])
Nc1c(/N=N/c2ccc(-c3ccc(/N=N/c4cc(S(=O)(=O)O)c5ccccc5c4N)cc3)cc2)cc(S(=O)(=O)O)c2ccccc12 [Congo Red],100,< 10,complete loss of inhibition,,,,,,,,
"Nc1ncnc2c1ncn2[C@@H]1O[C@H](CO[P@](=O)(O)O[P@@](=O)(O)OC[C@H]2NC[C@H](O)[C@@H]2O)[C@@H](O)[C@H]1O [ADP-HPD, Adenosine diphosphate (hydroxymethyl)pyrrolidinediol]",,,,approx. 80%,partial inhibition of PARG,120,lack of cell permeability,partially inhibited,67,only minimal PARG inhibition,complete inhibition
